Consider 18 compounds from patent US7732449B2, “Inhibitors of cathepsin S” (IRM LLC, priority 2003, dated 2010).

Holding throughout (format): biochemical
Assay [1] has as its target Cathepsin L (Homo sapiens, UniProt P07711). Kind of assay: Cathepsin L inhibition, fluorogenic peptide substrate kinetic assay (selectivity). Particulars: ratio of cathepsin L inhibition constant to cathepsin S inhibition constant.
The target in assay [2] is Cathepsin S (Homo sapiens, UniProt P25774). The assay can be described thus: Cathepsin S inhibition, fluorogenic peptide substrate kinetic assay.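 Further: cleavage rate of a coumarin-labelled peptide substrate (50 µM) read as fluorescence increase at Ex 380 nm and Em 450 nm, relative to inhibitor-free control reactions.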
Cathepsin S, sequence (P25774 115-331, species assumed): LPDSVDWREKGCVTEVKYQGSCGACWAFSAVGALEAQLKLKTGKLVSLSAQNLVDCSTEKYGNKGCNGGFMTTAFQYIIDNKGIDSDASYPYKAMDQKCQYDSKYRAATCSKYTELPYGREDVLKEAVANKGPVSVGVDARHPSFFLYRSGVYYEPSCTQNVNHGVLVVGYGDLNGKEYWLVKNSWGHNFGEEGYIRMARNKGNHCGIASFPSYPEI
Assay [3] concerns the target Cathepsin B (Homo sapiens, UniProt P07858). The assay can be described thus: Cathepsin B inhibition, fluorogenic peptide substrate kinetic assay (selectivity).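 Further: value is the cathepsin B inhibition constant divided by the cathepsin S one, each from kinetic fluorescence readings (ex 380 nm, em 450 nm) of a 10 µM coumarin peptide substrate.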 To be noted: ratio of cathepsin B inhibition constant to cathepsin S inhibition constant.
Assay [4] has as its target T1, Cathepsin K (Homo sapiens, UniProt P43235).
T1 sequence (P43235 115-329): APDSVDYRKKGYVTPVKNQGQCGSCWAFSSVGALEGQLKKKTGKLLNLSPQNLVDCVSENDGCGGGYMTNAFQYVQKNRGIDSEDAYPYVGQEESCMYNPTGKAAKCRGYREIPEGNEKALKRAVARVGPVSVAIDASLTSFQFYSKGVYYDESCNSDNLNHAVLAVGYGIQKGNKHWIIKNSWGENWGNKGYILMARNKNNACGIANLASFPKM
The assay can be described thus: Cathepsin K inhibition, fluorogenic peptide substrate kinetic assay (selectivity). Particulars: ratio of cathepsin K inhibition constant to cathepsin S inhibition constant.

Setting [5] is: Cathepsin S inhibition constant, pH5.5, 20 minutes preincubation at room temperature, read-out: Ki Cat. S.

Where two headings read alike, the source gives them in different places. Where only a bound is given, the exact number is not on record here.

Cathepsin L, sequence (P07711 114-333, species assumed): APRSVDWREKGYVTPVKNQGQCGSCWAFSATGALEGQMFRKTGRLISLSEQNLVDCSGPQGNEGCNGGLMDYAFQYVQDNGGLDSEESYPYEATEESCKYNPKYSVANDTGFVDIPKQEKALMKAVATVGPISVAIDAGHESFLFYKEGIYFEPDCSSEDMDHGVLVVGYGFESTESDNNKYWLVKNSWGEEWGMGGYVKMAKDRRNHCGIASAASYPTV

Take `COc1ccc(NCCNC(=O)[C@@H](CC(=O)N2CCOCC2)CC2CCCCC2)cc1` [Example 19, (R)-2-Cyclohexylmethyl-N-[2-(4-methoxy-phenylamino)-ethyl]-4-morpholin-4-yl-4-oxo-butyramide]: the “Selectivity for Cat. S over Cat. L” value in assay [1] is given as “++ (++, >100)”. For the same compound, in assay [2] (setting [5]), the Ki lay in the range of 100 to 1000 nM. Further, the “Selectivity for Cat. S over Cat. B” value in assay [3] was “++ (++, >100)”. For the same compound, the “Selectivity for Cat. S over Cat. K” value in assay [4] was “++ (++, >100)”.

As to `CCC[C@@H](CNc1ccc(OC(F)(F)F)cc1)NC(=O)[C@@H](CC(=O)N1CCOCC1)CC1CCCCC1` [Example 20, 2-(R)-Cyclohexylmethyl-4-morpholin-4-yl-4-oxo-N-{1-(S)-[(4-trifluoromethoxy-phenylamino)-methyl]-butyl}-butyramide], in assay [1], the “Selectivity for Cat. S over Cat. L” value is recorded as “+ (+, >10)”. The compound further returned an inhibitory constant (Ki) in assay [2] of under 100 nM. Besides, in assay [3], the “Selectivity for Cat. S over Cat. B” value is reported as “+++ (+++, >1000)”. Moreover, the “Selectivity for Cat. S over Cat. K” value in assay [4] is “+ (+, >10)”.

For the compound `C[C@@H](CNc1ccc(OC(F)(F)F)cc1)NC(=O)[C@H](CCC1CCCCC1)CC(=O)N1CCOCC1` [Example 21, 2-(R)-(2-Cyclohexyl-ethyl)-N-[1-(S)-methyl-2-(4-trifluoromethoxy-phenylamino)-ethyl]-4-morpholin-4-yl-4-oxo-butyramide], in assay [1], the “Selectivity for Cat. S over Cat. L” value is “+++ (+++, >1000)”. In assay [2], this compound gave a Ki of under 100 nM. Also, the “Selectivity for Cat. S over Cat. B” value in assay [3] is reported as “+++ (+++, >1000)”. Moreover, in assay [4], the “Selectivity for Cat. S over Cat. K” value is recorded as “++ (++, >100)”.

`CC[C@@H](CNc1ccc(OC(F)(F)F)cc1)NC(=O)[C@@H](CC(=O)N1CCOCC1)CC1CCCCC1` [Example 22, 2-(R)-Cyclohexylmethyl-4-morpholin-4-yl-4-oxo-N-{1-(S)-[(4-trifluoromethoxy-phenylamino)-methyl]-propyl}-butyramide]: the “Selectivity for Cat. S over Cat. L” value in assay [1] was “+ (+, >10)”. For the same compound, the Ki in assay [2] is under 100 nM. The “Selectivity for Cat. S over Cat. B” value in assay [3] is given as “+++ (+++, >1000)”. In addition, the “Selectivity for Cat. S over Cat. K” value in assay [4] is recorded as “+ (+, >10)”.

Consider `C[C@@H](CNc1ccc(OC(F)(F)F)cc1)NC(=O)[C@H](CCC(C)(C)C)CC(=O)N1CCOCC1` [Example 25, 5,5-Dimethyl-2-(R)-(2-morpholin-4-yl-2-oxo-ethyl)-hexanoic acid [1-(S)-methyl-2-(4-trifluoromethoxy-phenylamino)-ethyl]-amide], for which the “Selectivity for Cat. S over Cat. L” value in assay [1] was “++ (++, >100)”. In assay [2], this compound returned a Ki of 100 to 1000 nM. Besides, the “Selectivity for Cat. S over Cat. B” value in assay [3] is “++ (++, >100)”. The “Selectivity for Cat. S over Cat. K” value in assay [4] is listed as “++ (++, >100)”.

Consider `CCC[C@@H](CNc1ccc(OC(F)(F)F)cc1)NC(=O)[C@@H](CC(=O)N1CCOCC1)CC1CCCC1` [Example 27, 2-(R)-Cyclopentylmethyl-4-morpholin-4-yl-4-oxo-N-{1-(S)-[(4-trifluoromethoxy-phenylamino)-methyl]-butyl}-butyramide], for which, in assay [1], the “Selectivity for Cat. S over Cat. L” value is listed as “++ (++, >100)”. This compound registered a Ki in assay [2] of under 100 nM. For the same compound, the “Selectivity for Cat. S over Cat. B” value in assay [3] is given as “+++ (+++, >1000)”. Besides, the “Selectivity for Cat. S over Cat. K” value in assay [4] is on record as “+ (+, >10)”.

`CC(C)[C@@H](CNc1ccc(OC(F)(F)F)cc1)NC(=O)[C@@H](CC(=O)N1CCOCC1)c1ccccc1` [Example 34, N-{2-Methyl-1-(S)-[(4-trifluoromethoxy-phenylamino)-methyl]-propyl}-4-morpholin-4-yl-4-oxo-2-(S)-phenyl-butyramide]: the “Selectivity for Cat. S over Cat. L” value in assay [1] was “+ (+, >10)”. The same compound registered a Ki in assay [2] of under 100 nM. Further, the “Selectivity for Cat. S over Cat. B” value in assay [3] is reported as “+++ (+++, >1000)”. Moreover, the “Selectivity for Cat. S over Cat. K” value in assay [4] is on record as “+ (+, >10)”.

Turning to `CC(C)[C@@H](CNc1ccc(OC(F)(F)F)cc1)NC(=O)[C@@H](CC(=O)N1CCOCC1)C1CCCCC1` [Example 35, 2-(S)-Cyclohexyl-N-{2-methyl-1-(S)-[(4-trifluoromethoxy-phenylamino)-methyl]-propyl}-4-morpholin-4-yl-4-oxo-butyramide], the “Selectivity for Cat. S over Cat. L” value in assay [1] is recorded as “++ (++, >100)”. The inhibition constant (Ki) in assay [2] (setting [5]) was under 100 nM. Further, in assay [3], the “Selectivity for Cat. S over Cat. B” value is “+++ (+++, >1000)”. The “Selectivity for Cat. S over Cat. K” value in assay [4] is on record as “+ (+, >10)”.

Regarding `CC[C@@H](CNc1ccc(OC(F)(F)F)cc1)NC(=O)[C@H](CCC1CCCC1)CC(=O)N1CCOCC1` [Example 36, 2-(R)-(2-Cyclopentyl-ethyl)-4-morpholin-4-yl-4-oxo-N-{1-(S)-[(4-trifluoromethoxy-phenylamino)-methyl]-propyl}-butyramide], the “Selectivity for Cat. S over Cat. L” value in assay [1] is reported as “+ (+, >10)”. In addition, the Ki in assay [2] (setting [5]) is under 100 nM. Besides, in assay [3], the “Selectivity for Cat. S over Cat. B” value is given as “+++ (+++, >1000)”. In addition, the “Selectivity for Cat. S over Cat. K” value in assay [4] was “++ (++, >100)”.

Consider `O=C(N[C@@H](CCc1ccccc1)CNc1ccc(OC(F)(F)F)cc1)[C@H](CCC1CCCC1)CC(=O)N1CCOCC1` [Example 37, 2-(R)-(2-Cyclopentyl-ethyl)-4-morpholin-4-yl-4-oxo-N-{3-phenyl-1-(S)-[(4-trifluoromethoxy-phenylamino)-methyl]-propyl}-butyramide], for which, in assay [1], the “Selectivity for Cat. S over Cat. L” value was “+ (+, >10)”. The Ki in assay [2] was under 100 nM. For the same compound, the “Selectivity for Cat. S over Cat. B” value in assay [3] is on record as “++ (++, >100)”. Also, the “Selectivity for Cat. S over Cat. K” value in assay [4] was “++ (++, >100)”.

As to `CCC[C@@H](CNc1ccc(OC(F)(F)F)cc1)NC(=O)[C@@H](CC(=O)N1CCOCC1)c1ccccc1` [Example 39, 4-Morpholin-4-yl-4-oxo-2-(S)-phenyl-N-{1-(S)-[(4-trifluoromethoxy-phenylamino)-methyl]-butyl}-butyramide], in assay [1], the “Selectivity for Cat. S over Cat. L” value is on record as “++ (++, >100)”. In addition, the Ki in assay [2] (setting [5]) is under 100 nM. Also, in assay [3], the “Selectivity for Cat. S over Cat. B” value is listed as “+++ (+++, >1000)”. Moreover, in assay [4], the “Selectivity for Cat. S over Cat. K” value is recorded as “+ (+, >10)”.

Regarding `CC(C)[C@@H](CNc1ccc(OC(F)(F)F)cc1)NC(=O)[C@@H](CC(=O)N1CCOCC1)c1ccc(F)cc1` [Example 41, 2-(S)-(4-Fluoro-phenyl)-N-{2-methyl-1-(S)-[(4-trifluoromethoxy-phenylamino)-methyl]-propyl}-4-morpholin-4-yl-4-oxo-butyramide], the “Selectivity for Cat. S over Cat. L” value in assay [1] is “++ (++, >100)”. The compound also registered a Ki in assay [2] of under 100 nM. Besides, the “Selectivity for Cat. S over Cat. B” value in assay [3] was “+++ (+++, >1000)”. Moreover, the “Selectivity for Cat. S over Cat. K” value in assay [4] is given as “+ (+, >10)”.

As for `CC(C)[C@@H](CNc1ccc(OC(F)(F)F)cc1)NC(=O)[C@@H](CC(=O)N1CCOCC1)c1ccc(Cl)cc1` [Example 42, 2-(S)-(4-Chloro-phenyl)-N-{2-methyl-1-(S)-[(4-trifluoromethoxy-phenylamino)-methyl]-propyl}-4-morpholin-4-yl-4-oxo-butyramide], in assay [1], the “Selectivity for Cat. S over Cat. L” value is “++ (++, >100)”. The same compound had a Ki in assay [2] of under 100 nM. In addition, in assay [3], the “Selectivity for Cat. S over Cat. B” value is “+++ (+++, >1000)”. The “Selectivity for Cat. S over Cat. K” value in assay [4] is “+++ (+++, >1000)”.

As to `CC(C)[C@@H](CNc1ccc(OC(F)(F)F)cc1)NC(=O)[C@H](CC(=O)N1CCOCC1)c1ccc(Cl)cc1` [Example 43, 2-(R)-(4-Chloro-phenyl)-N-{2-methyl-1-(S)-[(4-trifluoromethoxy-phenylamino)-methyl]-propyl}-4-morpholin-4-yl-4-oxo-butyramide], the “Selectivity for Cat. S over Cat. L” value in assay [1] is “++ (++, >100)”. The Ki in assay [2] is 100 to 1000 nM. The “Selectivity for Cat. S over Cat. B” value in assay [3] is “++ (++, >100)”. Moreover, in assay [4], the “Selectivity for Cat. S over Cat. K” value is on record as “++ (++, >100)”.

Regarding `O=C(N[C@H](CNc1ccc(OC(F)(F)F)cc1)c1ccccc1)[C@@H](CC(=O)N1CCOCC1)CC1CCCCC1` [Example 45, 2-(R)-Cyclohexylmethyl-4-morpholin-4-yl-4-oxo-N-[1-(S)-phenyl-2-(4-trifluoromethoxy-phenylamino)-ethyl]-butyramide], in assay [1], the “Selectivity for Cat. S over Cat. L” value is reported as “++ (++, >100)”. In assay [2], this compound registered a Ki of under 100 nM. Besides, the “Selectivity for Cat. S over Cat. B” value in assay [3] is on record as “+++ (+++, >1000)”. The “Selectivity for Cat. S over Cat. K” value in assay [4] is recorded as “++ (++, >100)”.

With `O=C(N[C@H](CNc1ccc(OC(F)(F)F)cc1)c1ccccc1)[C@H](CCC1CCCC1)CC(=O)N1CCOCC1` [Example 46, 2-(R)-(2-Cyclopentyl-ethyl)-4-morpholin-4-yl-4-oxo-N-[1-(S)-phenyl-2-(4-trifluoromethoxy-phenylamino)-ethyl]-butyramide], in assay [1], the “Selectivity for Cat. S over Cat. L” value is recorded as “++ (++, >100)”. The Ki in assay [2] (setting [5]) was under 100 nM. The “Selectivity for Cat. S over Cat. B” value in assay [3] was “+++ (+++, >1000)”. Besides, the “Selectivity for Cat. S over Cat. K” value in assay [4] is listed as “+++ (+++, >1000)”.

`O=C(N[C@H](CNc1ccc(OC(F)(F)F)cc1)c1ccccc1)[C@@H](CC(=O)N1CCOCC1)c1ccc(Cl)cc1` [Example 48, 2-(S)-(4-Chloro-phenyl)-4-morpholin-4-yl-4-oxo-N-[1-(S)-phenyl-2-(4-trifluoromethoxy-phenylamino)-ethyl]-butyramide]: in assay [1], the “Selectivity for Cat. S over Cat. L” value is “++ (++, >100)”. In addition, the Ki in assay [2] (setting [5]) is 100 to 1000 nM. The “Selectivity for Cat. S over Cat. B” value in assay [3] is recorded as “++ (++, >100)”. Also, the “Selectivity for Cat. S over Cat. K” value in assay [4] is listed as “+ (+, >10)”.

With `Cc1cc(NCCNC(=O)[C@H](CCC(C)(C)C)CC(=O)N2CCOCC2)no1` [Example 49, (R)-5,5-Dimethyl-2-(2-morpholin-4-yl-2-oxo-ethyl)-hexanoic acid [2-(5-methyl-isoxazol-3-ylamino)-ethyl]-amide], the “Selectivity for Cat. S over Cat. L” value in assay [1] is given as “+ (+, >10)”. The Ki in assay [2] (setting [5]) lay in the range of 1000 to 10000 nM. Further, the “Selectivity for Cat. S over Cat. B” value in assay [3] is recorded as “+ (+, >10)”. Also, the “Selectivity for Cat. S over Cat. K” value in assay [4] is on record as “+ (+, >10)”.

What is called Ki is the equilibrium dissociation constant of an inhibitor or competing ligand from its target.
